According to patent publication US11185553B2, “Pharmaceutical composition for preventing or treating ischemic-reperfusion injury comprising bile acids” (priority 2016, dated 2021):

Experiments:
beta-catenin = assay: Nuclear beta-catenin luciferase assay in TCF/LEF reporter_HEK293 cell line; format: cell-based; conditions: TCF/LEF reporter_HEK293, 1 μm or 10 μm, 24 hours, FIG. 1
[1] = system: reperfusion injury mouse model; assay: Reperfusion injury mouse model, TTC staining of infarcted heart tissue
[2] = system: mitochondrial permeability transition pore (mPTP); assay: TMRM staining of 293T cells after CCCP-induced mPTP opening; format: cell-based; conditions: 1 μM and 10 μM, CCCP 50 μM, FIG. 3
[3] = system: reperfusion injury mouse model; assay: Mouse myocardial necrosis in reperfusion injury model, Annexin-Vivo750 fluorescent dye; format: in vivo; conditions: Annexin-Vivo750, FIG. 7B
Protocol: In order to confirm the inhibitory effect of deoxycholic acid among the bile acids on myocardial necrosis caused by reperfusion injury, the test was performed to confirm mouse myocardial necrosis using Annexin-Vivo750 fluorescent dye.
After 24 hours, Annexin-Vivo750 fluorescent dye was injected into the mouse model prepared in Example 3 to examine the effect of deoxycholic acid (1, 2, 5 mg/kg (mpk)) by the concentration. Annexin dyes are known to bind where apoptosis occurs and to show fluorescence.

Structure (SMILES) | beta-catenin levels in the nucleus (luciferase activity) (beta-catenin) | reduction of the infarcted area ([1]; 2 mg/kg, FIG. 6B) | concentration at which cells died ([1]; reperfusion injury mouse model) [mg/kg] | concentration at which the effect was shown ([1]; reperfusion injury mouse model) [mg/kg] | inhibition of mitochondrial injury [2] | decrease of myocardial death compared to the control group with reperfusion surgery ([3]; 1 mpk) [%] | decrease of myocardial death compared to the control group with reperfusion surgery ([3]; 2 mpk) [%]
C[C@H](CCC(=O)NCCS(=O)(=O)O)[C@H]1CC[C@H]2[C@@H]3[C@H](O)C[C@@H]4C[C@H](O)CC[C@]4(C)[C@H]3C[C@H](O)[C@]12C [TauroCA, taurocholic acid] | significantly increased | – | – | – | – | – | –
C[C@H](CCC(=O)O)[C@H]1CC[C@H]2[C@@H]3CC[C@@H]4C[C@H](O)CC[C@]4(C)[C@H]3C[C@H](O)[C@]12C [deoxycholic acid] | – | about 50% | ≥ 10 | ≤ 2 | about 90% | ≥ 40 | ≥ 40
C[C@H](CCC(=O)O)[C@H]1CC[C@H]2[C@@H]3[C@H](O)C[C@@H]4C[C@H](O)CC[C@]4(C)[C@H]3C[C@H](O)[C@]12C [cholic acid] | significantly increased | – | – | – | about 90% | – | –
